Paper PMC7047604 (Journal of medicinal chemistry, 2020)
“Also recorded” adds a separate entry of the source.

Experiments:
human KOR [1] = target: T1, human KOR (Homo sapiens, UniProt P41145); assay type: biochemical
human MOR = human MOR (Homo sapiens, UniProt P35372); assay: biochemical; assay type: biochemical; conditions: for Emax at 10 µM: read-out: Efficacy (% Stimulation) MOR
human DOR [2] = target: T2, human DOR (Homo sapiens, UniProt P41143); assay type: binding
human KOR [3] = target: T1, human KOR; assay type: binding
human DOR [4] = target: T2, human DOR; assay type: biochemical
male C57BL/6 mice = conditions: mouse, in vivo
in vitro = conditions: mouse, microsomes, pH 7.4, metabolic half-life in MLM, abstract statement

T2 sequence (P41143 whole entry): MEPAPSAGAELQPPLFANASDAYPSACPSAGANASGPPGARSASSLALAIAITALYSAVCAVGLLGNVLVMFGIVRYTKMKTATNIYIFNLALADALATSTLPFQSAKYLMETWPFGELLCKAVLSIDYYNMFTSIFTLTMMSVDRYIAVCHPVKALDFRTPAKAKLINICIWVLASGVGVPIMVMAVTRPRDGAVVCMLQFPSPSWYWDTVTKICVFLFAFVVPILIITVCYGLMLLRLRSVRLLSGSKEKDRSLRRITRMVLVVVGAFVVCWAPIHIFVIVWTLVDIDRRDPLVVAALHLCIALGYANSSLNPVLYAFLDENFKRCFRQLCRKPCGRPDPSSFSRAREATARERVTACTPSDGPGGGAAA
T1 sequence (P41145 whole entry): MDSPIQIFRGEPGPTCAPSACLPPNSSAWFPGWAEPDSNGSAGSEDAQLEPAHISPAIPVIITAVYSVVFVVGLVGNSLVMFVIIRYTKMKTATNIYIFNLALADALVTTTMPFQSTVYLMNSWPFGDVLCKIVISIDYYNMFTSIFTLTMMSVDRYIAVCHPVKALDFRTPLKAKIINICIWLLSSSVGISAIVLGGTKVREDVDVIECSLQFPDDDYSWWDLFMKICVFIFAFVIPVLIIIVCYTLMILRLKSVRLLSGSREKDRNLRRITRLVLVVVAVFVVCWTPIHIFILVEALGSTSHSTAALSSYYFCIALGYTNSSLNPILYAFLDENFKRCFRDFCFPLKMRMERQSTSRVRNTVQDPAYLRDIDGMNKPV
Sequence of human MOR (P35372 whole entry): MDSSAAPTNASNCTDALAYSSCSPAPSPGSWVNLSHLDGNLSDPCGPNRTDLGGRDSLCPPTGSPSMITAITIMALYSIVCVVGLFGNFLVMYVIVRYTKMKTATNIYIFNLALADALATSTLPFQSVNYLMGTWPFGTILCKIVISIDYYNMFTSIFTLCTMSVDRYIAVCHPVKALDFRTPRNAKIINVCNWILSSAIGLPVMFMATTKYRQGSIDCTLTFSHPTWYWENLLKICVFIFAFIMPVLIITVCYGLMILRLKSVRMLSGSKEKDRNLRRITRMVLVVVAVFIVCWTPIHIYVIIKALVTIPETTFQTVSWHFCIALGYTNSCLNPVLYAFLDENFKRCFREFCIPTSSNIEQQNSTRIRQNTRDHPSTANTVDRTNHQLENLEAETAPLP

| SMILES | Efficacy (% Stimulation) KOR (human KOR [1]) | Potency, EC50 KOR (human KOR [1]) | Efficacy (% Stimulation) MOR (human MOR) | Potency, EC50 MOR (human MOR) | Selectivity MOR:DOR:KOR, DOR term (Ki DOR / Ki MOR) (human DOR [2]) | Selectivity MOR:DOR:KOR, KOR term (Ki KOR / Ki MOR) (human KOR [3]) | Efficacy (% Stimulation) DOR (human DOR [4]) | Potency, EC50 DOR (human DOR [4]) | Emax at 10 µM (human MOR) | antinociceptive activity in AASA at 1 mg/kg (male C57BL/6 mice) | half-life at 1 μM (in vitro) | antinociceptive activity in AASA (overall) (male C57BL/6 mice) | MOR agonist character in words (human MOR) | partial DOR agonist, potency in words (human DOR [4]) | KOR binding affinity in words (human KOR [3]) |
| --- | --- | --- | --- | --- | --- | --- | --- | --- | --- | --- | --- | --- | --- | --- | --- |
| CCOc1ccc(C(=O)N2CCCC2)cc1CNC(=O)[C@@H](N)Cc1c(C)cc(O)cc1C.O=C(O)C(F)(F)F [Compound 21, (S)-1-((2-ethoxy-5-(pyrrolidine-1-carbonyl)benzyl)amino)-3-(4-hydroxy-2,6-dimethylphenyl)-1-oxopropan-2-aminium trifluoroacetate] | DNS | DNS | DNS | DNS | 1:2.2:>22 | 1:2.2:>22 | did not stimulate DOR and DNS | DNS | – | – | – | – | – | – | – |
| CCOc1ccc(C(=O)N2Cc3ccccc3C2)cc1CNC(=O)[C@@H](N)Cc1c(C)cc(O)cc1C.O=C(O)C(F)(F)F [Compound 22, (S)-1-((2-ethoxy-5-(isoindoline-2-carbonyl)benzyl)amino)-3-(4-hydroxy-2,6-dimethylphenyl)-1-oxopropan-2-aminium trifluoroacetate] | DNS | DNS | – | – | 1:20:900 | – | did not stimulate DOR and DNS | DNS | 27.8 ± 0.7% | – | – | – | – | – | – |
| CCOc1ccc(CN2CCCCC2)cc1CNC(=O)[C@@H](N)Cc1c(C)cc(O)cc1C.O=C(O)C(F)(F)F [Compound 14, (S)-1-((2-ethoxy-5-(piperidin-1-ylmethyl)benzyl)amino)-3-(4-hydroxy-2,6-dimethylphenyl)-1-oxopropan-2-aminium trifluoroacetate] | DNS | DNS | – | – | 1:3.1:20 | 1:3.1:20 | – | – | – | active antinociceptive agents | > 1 h | – | – | – | – |
| CCOc1ccc(CN2CCCC2)cc1CNC(=O)[C@@H](N)Cc1c(C)cc(O)cc1C.O=C(O)C(F)(F)F [Compound 13, (S)-1-((2-ethoxy-5-(pyrrolidin-1-ylmethyl)benzyl)amino)-3-(4-hydroxy-2,6-dimethylphenyl)-1-oxopropan-2-aminium trifluoroacetate] | – | – | – | – | 1:3.0:29 | 1:3.0:29 | – | – | – | – | – | inactive; also recorded: lacked antinociceptive activity | – | – | – |
| CCOc1ccc(CN2CCOCC2)cc1CNC(=O)[C@@H](N)Cc1c(C)cc(O)cc1C.O=C(O)C(F)(F)F [Compound 16, (S)-1-((2-ethoxy-5-(morpholinomethyl)benzyl)amino)-3-(4-hydroxy-2,6-dimethylphenyl)-1-oxopropan-2-aminium trifluoroacetate] | DNS | DNS | – | – | 1:2.0:>49 | 1:2.0:>49 | did not stimulate DOR and DNS | DNS | – | – | – | – | – | – | – |
| CCOc1ccc(CN2CC3CC3C2)cc1CNC(=O)[C@@H](N)Cc1c(C)cc(O)cc1C.O=C(O)C(F)(F)F (stereo partly drawn) [Compound 15, (2S)-1-((5-((3-azabicyclo[3.1.0]hexan-3-yl)methyl)-2-ethoxybenzyl)amino)-3-(4-hydroxy-2,6-dimethylphenyl)-1-oxopropan-2-aminium trifluoroacetate] | – | – | – | – | 1:2.6:13 | 1:2.6:13 | – | – | – | – | – | – | – | – | – |
| CCOc1ccc(CN2Cc3ccccc3C2)cc1CNC(=O)[C@@H](N)Cc1c(C)cc(O)cc1C.O=C(O)C(F)(F)F [Compound 17, (S)-1-((2-ethoxy-5-(isoindolin-2-ylmethyl)benzyl)amino)-3-(4-hydroxy-2,6-dimethylphenyl)-1-oxopropan-2-aminium trifluoroacetate] | DNS | DNS | – | – | – | – | 35.7±2.8% | – | 98.1 ± 6.7% | active antinociceptive agents | – | – | full agonists | moderate | – |
| CCOc1ccc(CN(C)Cc2ccccc2)cc1CNC(=O)[C@@H](N)Cc1c(C)cc(O)cc1C.O=C(O)C(F)(F)F [Compound 20, (S)-1-((5-((benzyl(methyl)amino)methyl)-2-ethoxybenzyl)amino)-3-(4-hydroxy-2,6-dimethylphenyl)-1-oxopropan-2-aminium trifluoroacetate] | DNS | DNS | – | – | 1:4.0:26 | 1:4.0:26 | did not stimulate DOR and DNS | DNS | 72.2 ± 6.2% | – | – | inactive; also recorded: lacked antinociceptive activity | – | – | low double-digit |
| CCOc1ccc(CN2CCc3ccccc3C2)cc1CNC(=O)[C@@H](N)Cc1c(C)cc(O)cc1C.O=C(O)C(F)(F)F [Compound 18, (S)-1-((5-((3,4-dihydroisoquinolin-2(1H)-yl)methyl)-2-ethoxybenzyl)amino)-3-(4-hydroxy-2,6-dimethylphenyl)-1-oxopropan-2-aminium trifluoroacetate] | DNS | DNS | – | – | 1:10:192 | – | did not stimulate DOR and DNS | DNS | 94.6 ± 3.9% | – | – | – | full agonists | – | – |
| CCOc1ccc(CNCc2ccccc2)cc1CNC(=O)[C@@H](N)Cc1c(C)cc(O)cc1C.O=C(O)C(F)(F)F [Compound 19, (S)-1-((5-((benzylamino)methyl)-2-ethoxybenzyl)amino)-3-(4-hydroxy-2,6-dimethylphenyl)-1-oxopropan-2-aminium trifluoroacetate] | >20% | – | – | – | – | – | 26.1±1.7% | – | 77.9 ± 3% | – | – | – | – | high | low double-digit |
